Assay results: patent US20230126533A1, “Method of treating an inflammatory disorder” (The University of Miami, priority 2020, published 2023)
Starred links: 1 amine or outer side, 2 acyl side, 3 side chain; linkers in the order of their positions; H or OH if unused. Non-standard residues stand in square brackets, D forms with d. *: point of attachment. Tyr(Me) = O-methyl-tyrosine, COc1ccc(C[C@H](N[*:1])C(=O)[*:2])cc1; Phenylacetyl(2,3,4,5,6-F5) = O=C(Cc1c(F)c(F)c(F)c(F)c1F)*; Phe(F5) = N[C@@H](Cc1c(F)c(F)c(F)c(F)c1F)C(=O)O; hArg = N=C(N)NCCCC[C@H](N)C(=O)O; 12Ado = NCCCCCCCCCCCC(=O)O; Nle = CCCC[C@H](N)C(=O)O; Abu = CC[C@H](N)C(=O)O

Legend:
[1] = test system: C57B1/6 mice challenged with Mycobacterium abscessus (MAB) microparticles; assay: Lung inflammation score in mouse model of pulmonary sarcoidosis; assay type: in vivo; conditions: AVR 5 microgram per mouse daily subcutaneous, after 3 weeks, vs saline granuloma group
Method: (§1) A mouse model of pulmonary sarcoidosis was previously established in C57B1/6 mice. Microparticles (Mycobacterium abscessus) developed in-house were administered intratracheally. The tongue was pulled out with a small spatula and microparticle was inserted into the trachea using a 20 G angio-catheter tube and advanced to main bronchus until reach to resistant. After tube placement, microparticles were administered (first dose of 50 μL=5×10^8, followed by up to 3 doses of 20 μL=2×10^8 of CFU of M. abscessus). The control group received only 20 μL PBS intratracheally.
The lung tissue was fixed in formalin and cut for histology. Developed noncaseating granuloma in the mouse lung was visualized with H&E staining and immunohistochemistry staining for CD68 macrophage marker, CD4 marker, and PD-L1.
(§2) One sarcoidosis group received AVR (“AVR group”), administered via subcutaneous injection, 5 microgram per mouse daily. Another sarcoidosis group received steroid treatment ([…], the current first line treatment for sarcoidosis) (“solu-medrol group”), and the final group received only saline (“granuloma group”). After 3 weeks mice were sacrificed and graded the inflammation in the lung samples.
Two mg of AVR-352 was added to 0.5 ml DMSO. After dissolving, 1,2-propanediol 10% was added to reach a volume of 40 ml. The fluid was sterilized by passing through a 0.22-micron filter. […]

[2] = test system: PBMC of subjects with confirmed pulmonary sarcoidosis; assay: Apoptosis-related proteins in ex vivo sarcoidosis granuloma model (multiplex Elisa); assay type: cell-based, human; conditions: PBMC challenged with MAB microparticles 10:1, 48 h; for active caspase 3 concentration: 1 microM AVR
Source text: GHRHR antagonists induce apoptosis in cancer cells. The effects of GHRHR antagonist in immune cells still remains unclear. The ability of AVR to induce apoptosis in an ex vivo sarcoidosis model using PBMC of five subjects with confirmed pulmonary sarcoidosis was characterized.
PBMC samples were grouped as “control” (not challenged), “particles” (granuloma), “particles+AVR” (granuloma treated with 1 microM AVR), and “particles+Solu” (granuloma treated with methyl prednisolone as positive control). The “particle” groups were challenged with equal to 10:1 treatment with MAB microparticles. Media from all groups were removed 48 h after of treatments. Survivn, MCL-1/Bak Dimer, BClxL/Bak dimer, and active caspase 3 concentrations were measured using multiplex Elisa instrument and compared using t-test.

[3] = test system: CD209f gene; assay: RNASeq gene expression in lungs of MAB microparticle challenged mice; assay type: in vivo, mouse; conditions: challenged mice with AVR treatment vs challenged mice
Method: as §1, §2
Whole gene expression was analyzed using RNASeq. Harvested lung from control, challenged, and treatment groups generated as described in Example 3 were used. RNA was isolated and RNASeq was performed at Genomic center at University of Miami. […] A heatmap was generated for the differentiating genes between challenged mice with MAB microparticles versus challenged mice with AVR treatment.

[4] = test system: iNOS; assay: iNOS expression in lungs of MAB microparticle challenged mice; assay type: in vivo; conditions: mouse models of Example 3; vs MAB microparticle alone
Method: as §1, §2
Inducible Nitric oxide synthase (iNOS) plays important role in immune response to microbes. NO can control the production of Th1 immune responses by modulating IL-12 expression. NO plays an important inhibitory role in Th17 differentiation. […] To test whether AVR reduces iNOS expression in an inflammation model, lungs from mouse models described in Example 3 were evaluated for iNOS.

[5] = test system: IL2, OAS1 and ISG15; assay: Cytokine expression (Western blot) in lungs of MAB microparticle challenged mice; assay type: in vivo; conditions: mouse models of Example 3; vs MAB microparticle challenge
Method: as §1, §2
The effects of AVR on IL2 (T helper 1 cytokine) and Type I interferon cytokines (OAS1 and ISG15) were measured and compared in the lungs of mice models prepared as set forth in Example 3.

| Molecule | lung inflammation score (percentage of lung inflammation) [1] | active caspase 3 concentration [2] | CD209f gene expression in lung [3] | iNOS expression in the challenged lung [4] | IL2 expression in lung [5] | ISG15 expression in lung [5] | OAS1 expression in lung [5] | MCL-1/Bak dimer concentration [2] |
| --- | --- | --- | --- | --- | --- | --- | --- | --- |
| 5FPhAC-Ada-Tyr-DArg-Asp-Ala-Ile-5FPhe-Thr-Ala-Har-Tyr(Me)-Arg-Lys-Val-Leu-Abu-Gln-Leu-Ser-Ala-Arg-Lys-Leu-Leu-Gln-Asp-Ile-Nle-DArg-Har-Ada-NH2 ({Phenylacetyl(2,3,4,5,6-F5)-12Ado}-Y[dR]DAI[Phe(F5)]TA[hArg][Tyr(Me)]RKVL[Abu]QLSARKLLQDI[Nle][dR][hArg]-{12Ado-NH2}; SMILES CCCC[C@H](NC(=O)[C@@H](NC(=O)[C@H](CC(=O)O)NC(=O)[C@H](CCC(N)=O)NC(=O)[C@H](CC(C)C)NC(=O)[C@H](CC(C)C)NC(=O)[C@H](CCCCN)NC(=O)[C@H](CCCNC(=N)N)NC(=O)[C@H](C)NC(=O)[C@H](CO)NC(=O)[C@H](CC(C)C)NC(=O)[C@H](CCC(N)=O)NC(=O)[C@H](CC)NC(=O)[C@H](CC(C)C)NC(=O)[C@@H](NC(=O)[C@H](CCCCN)NC(=O)[C@H](CCCNC(=N)N)NC(=O)[C@H](Cc1ccc(OC)cc1)NC(=O)[C@H](CCCCNC(=N)N)NC(=O)[C@H](C)NC(=O)[C@@H](NC(=O)[C@H](Cc1c(F)c(F)c(F)c(F)c1F)NC(=O)[C@@H](NC(=O)[C@H](C)NC(=O)[C@H](CC(=O)O)NC(=O)[C@@H](CCCNC(=N)N)NC(=O)[C@H](Cc1ccc(O)cc1)NC(=O)CCCCCCCCCCCNC(=O)Cc1c(F)c(F)c(F)c(F)c1F)[C@@H](C)CC)[C@@H](C)O)C(C)C)[C@@H](C)CC)C(=O)N[C@H](CCCNC(=N)N)C(=O)N[C@@H](CCCCNC(=N)N)C(=O)NCCCCCCCCCCCC(N)=O) [AVR] | significantly lower inflammation scores | significantly increased | significantly downregulated | significantly reduced MAB-induced increased iNOS expression | reduced significantly | reduced significantly | reduced significantly | – |
| C[C@H]1C[C@@H]2[C@H]([C@@H](O)C[C@@]3(C)[C@H]2CC[C@]3(O)C(=O)COC(=O)CCC(=O)[O-])[C@@]2(C)C=CC(=O)C=C12.[Na+] [Solu-Medrol, reference compound] | less effect than AVR | significantly increased | – | reduced MAB-induced increased iNOS expression | – | – | – | significantly reduced |
